Results: ChEMBL document CHEMBL5244219, “Recent developments of quinolone-based derivatives and their activities against Escherichia coli” (Eur J Med Chem, 2018)
Values after ≈ are worked out from the molar mass of the structure shown. Each block holds one compound with its values, some of them ahead of it.

How the values were obtained:
Escherichia coli [1] = test: Antibacterial activity against Escherichia coli assessed as bacterial growth inhibition incubated for 18 to 20 hrs by agar dilution method; assay type: functional; settings: time 18-20 hrs
Escherichia coli [2] = test: Antibacterial activity against Escherichia coli assessed as bacterial growth inhibition by agar dilution method; assay type: functional
Escherichia coli [3] = test: Antibacterial activity against Escherichia coli NCDC 134 assessed as bacterial growth inhibition; assay type: functional
Escherichia coli [4] = test: Antibacterial activity against Escherichia coli H560 assessed as bacterial growth inhibition; assay type: functional
Escherichia coli [5] = test: In vivo antibacterial activity against Escherichia coli H560 infected in sc dosed CD-1 mouse assessed as bacterial growth inhibition; assay type: functional; settings: read-out: PD50
Escherichia coli [6] = test: In vivo antibacterial activity against Escherichia coli H560 infected in po dosed CD-1 mouse assessed as bacterial growth inhibition; assay type: functional; settings: read-out: PD50
Escherichia coli [7] = test: Antibacterial activity against Escherichia coli ATCC 25922 assessed as bacterial growth inhibition; assay type: functional
Escherichia coli [8] = test: Antibacterial activity against Escherichia coli ATCC 8739 assessed as bacterial growth inhibition; assay type: functional
Escherichia coli [9] = test: Antibacterial activity against Escherichia coli ISF 432 assessed as bacterial growth inhibition; assay type: functional
Escherichia coli [10] = test: Antibacterial activity against Escherichia coli TolC assessed as bacterial growth inhibition; assay type: functional
[11] = Cmax in mouse at 20 mg/kg, po; assay type: ADME, organism-based; parameters: dose 20 mg/kg, route po; settings: in vivo
[12] = Half life in mouse at 20 mg/kg, po; assay type: ADME, organism-based; settings: in vivo
Escherichia coli [13] = test: Antibacterial activity against Escherichia coli KC-14 assessed as bacterial growth inhibition; assay type: functional
[14] = AUC(0 to infinity) in mouse at 20 mg/kg, po; assay type: ADME, organism-based; parameters: dose 20 mg/kg, route po; settings: in vivo
Escherichia coli [15] = test: Antibacterial activity against Escherichia coli KC-14 infected in po dosed mouse assessed as bacterial growth inhibition; assay type: functional; settings: Escherichia coli, KC-14, po, read-out: ED50
Escherichia coli [16] = test: Antibacterial activity against Escherichia coli DH5alpha assessed as bacterial growth inhibition; assay type: functional
Escherichia coli [17] = test: Antibacterial activity against Escherichia coli ATCC 700603 assessed as bacterial growth inhibition by agar dilution method; assay type: functional
Escherichia coli [18] = test: Antibacterial activity against clinical isolate Escherichia coli assessed as bacterial growth inhibition incubated for 24 hrs by agar dilution method; assay type: functional
Escherichia coli [19] = test: Antibacterial activity against Escherichia coli ATCC 35218 assessed as bacterial growth inhibition incubated for 18 hrs by agar dilution method; assay type: functional
Escherichia coli [20] = test: Antibacterial activity against Escherichia coli assessed as bacterial growth inhibition by broth microdilution method; assay type: functional
Escherichia coli [21] = test: Potency index, ratio of norfloxacin MIC to compound IC50 for antibacterial activity against Escherichia coli JM109; assay type: functional
Escherichia coli [22] = test: Potency index, ratio of norfloxacin MIC to compound IC50 for antibacterial activity against Escherichia coli DH52; assay type: functional
Escherichia coli [23] = test: Potency index, ratio of ciprofloxacin MIC to compound IC50 for antibacterial activity against Escherichia coli JM109; assay type: functional
Escherichia coli [24] = test: Potency index, ratio of ciprofloxacin MIC to compound IC50 for antibacterial activity against Escherichia coli DH52; assay type: functional; settings: time 24 hrs
Escherichia coli [25] = test: Antibacterial activity against Escherichia coli JM109 assessed as bacterial growth inhibition; assay type: functional
Escherichia coli [26] = test: Antibacterial activity against Escherichia coli DH52 assessed as bacterial growth inhibition; assay type: functional
Escherichia coli [27] = test: Antibacterial activity against drug-sensitive Escherichia coli assessed as bacterial growth inhibition; assay type: functional
Escherichia coli [28] = test: Antibacterial activity against Escherichia coli assessed as bacterial growth inhibition incubated for 18 hrs by agar dilution method; assay type: functional

MIC (Escherichia coli [8]): 0.008 µg/mL (≈ 0.0215 µM) | MIC (Escherichia coli [9]): 0.008 µg/mL (≈ 0.0215 µM)
SMILES: Cc1c(N2CC(C)OC(C)C2)c(N)cc2c(=O)c(C(=O)O)cn(C3CC3)c12 (stereo not drawn)

MIC90 (Escherichia coli [2]): 4 µg/mL (≈ 9.96 µM) | MIC (Escherichia coli [10]): 11.5 µg/mL (≈ 28.7 µM) | MIC (Escherichia coli [4]): 0.006 µg/mL (≈ 0.0149 µM)
SMILES: COc1c(N2C[C@@H]3CCCN[C@@H]3C2)c(F)cc2c(=O)c(C(=O)O)cn(C3CC3)c12 [MOXIFLOXACIN]

Cmax [11]: 840 ng/mL | half-life [12]: 4.9 h | MIC (Escherichia coli [13]): 0.1 µg/mL (≈ 0.254 µM) | AUC(0-inf) [14]: 2700 ng·h/mL
SMILES: COc1c(N2CCN(C)CC2)c(F)cc2c(=O)c(C(=O)O)c3n(c12)C(C)S3 (stereo not drawn)
ED50 (Escherichia coli [15]): 1.28 mg/kg

MIC (Escherichia coli [17]): 1 µg/mL (≈ 2.73 µM)
SMILES: NC1CCN(c2c(F)cc3c(=O)c(C(=O)O)cn(C4CC4)c3c2Cl)C1 (stereo not drawn) [CLINAFLOXACIN]

MIC90 (Escherichia coli [18]): 32 µg/mL (≈ 82.2 µM)
SMILES: CO/N=C1\CN(c2nc3c(cc2F)c(=O)c(C(=O)O)cn3C2CC2)CC1CN (stereo not drawn) [GEMIFLOXACIN]

MIC (Escherichia coli [19]): < 0.008 µg/mL
SMILES: COc1cccc(CO/N=C2\CCN(c3c(F)cc4c(=O)c(C(=O)O)cn(C5CC5)c4c3OC)CC2N)c1 (stereo not drawn)

MIC (Escherichia coli [19]): < 0.008 µg/mL
SMILES: COc1cccc(CO/N=C2\CCN(c3c(F)cc4c(=O)c(C(=O)O)cn(C5CC5)c4c3OC)CC2N)c1OC (stereo not drawn)

MIC (Escherichia coli [25]): 0.125 µg/mL (≈ 0.271 µM) | MIC (Escherichia coli [26]): 0.125 µg/mL (≈ 0.271 µM)
SMILES: Cc1c(N2CCN(c3nc4ccccc4[nH]3)CC2)c(F)cc2c(=O)c(C(=O)O)cn(C3CC3)c12
Ratio (Escherichia coli [21]): 2 | Ratio (Escherichia coli [22]): 2 | Ratio (Escherichia coli [23]): 2 | Ratio (Escherichia coli [24]): 2

MIC (Escherichia coli [28]): ≤ 0.006 µg/mL
SMILES: COc1c(N2CC3(CC3)[C@](C)(N)C2)c(F)cc2c(=O)c(C(=O)O)cn([C@@H]3C[C@@H]3F)c12

MIC (Escherichia coli [19]): < 0.008 µg/mL
SMILES: CO/N=C1\CN(c2nc3c(cc2F)c(=O)c(C(=O)O)cn3[C@@H]2C[C@@H]2F)CC1CN (stereo partly drawn)

The remaining lines, values behind:

SMILES: COc1c(N2CCNC(C)C2)c(F)cc2c(=O)c(C(=O)O)cn(C3CC3)c12 (stereo not drawn) [GATIFLOXACIN]
MIC (Escherichia coli [1]): 0.015 µg/mL (≈ 0.04 µM) | MIC90 (Escherichia coli [2]): 4 µg/mL (≈ 10.7 µM) | MIC (Escherichia coli [3]): 100 µg/mL (≈ 266 µM) | MIC (Escherichia coli [4]): 0.006 µg/mL (≈ 0.016 µM)

SMILES: O=C(O)c1cn(-c2ccc(F)cc2F)c2nc(N3CCCC3)c(F)cc2c1=O
ED50 (Escherichia coli [5]): 0.2 mg/kg | ED50 (Escherichia coli [6]): 0.5 mg/kg | MIC (Escherichia coli [4]): 0.025 µg/mL (≈ 0.0642 µM)

SMILES: C[C@@H](O)[C@H]1C(=O)N2C(C(=O)O)=C(COC(=O)N3CCN(c4cc5c(cc4F)c(=O)c(C(=O)O)cn5C4CC4)CC3)S[C@H]12
MIC (Escherichia coli [7]): ≤ 0.06 µg/mL

SMILES: CC(C)=CCC/C(C)=C/Cc1c(C)[nH]c2ccccc2c1=O
MIC50 (Escherichia coli [16]): > 64 µg/mL | MIC50 (Escherichia coli [10]): > 1.41 µg/mL

SMILES: Cc1[nH]c2ccccc2c(=O)c1C
MIC50 (Escherichia coli [16]): > 64 µg/mL | MIC50 (Escherichia coli [10]): > 1.41 µg/mL

SMILES: CC(C)=CCc1c(C)[nH]c2ccccc2c1=O
MIC50 (Escherichia coli [16]): > 64 µg/mL | MIC50 (Escherichia coli [10]): > 1.41 µg/mL

SMILES: CCn1cc(C(=O)NN)c(=O)c2cc(Cl)ccc21
MIC (Escherichia coli [20]): 0.0625 µg/mL (≈ 0.235 µM)

SMILES: O=C(O)c1cn(C2CC2)c2cc(N3CCN([C@@H]4O[C@H](CO)[C@@H](O)[C@H](O)[C@H]4O)CC3)c(F)cc2c1=O
MIC (Escherichia coli [27]): ≤ 0.03 µg/mL

SMILES: Cc1c(N2CCc3ccccc3C2)c(N)cc2c(=O)c(C(=O)O)cn(C3CC3)c12
MIC (Escherichia coli [8]): 0.008 µg/mL (≈ 0.0205 µM) | MIC (Escherichia coli [9]): 0.008 µg/mL (≈ 0.0205 µM)

SMILES: NC1CCN(c2nc3c(cc2F)c(=O)c(C(=O)O)cn3-c2ccc(F)cc2F)C1 (stereo not drawn) [TOSUFLOXACIN]
MIC (Escherichia coli [4]): ≤ 0.003 µg/mL

SMILES: N[C@@H]1CN(c2c(F)cc3c(=O)c(C(=O)O)cn([C@@H]4C[C@@H]4F)c3c2Cl)CC12CC2 [SITAFLOXACIN ANHYDROUS]
MIC (Escherichia coli [28]): ≤ 0.006 µg/mL

SMILES: O=C(O)c1cn(C2CC2)c2cc(N3CCN([C@@H]4O[C@H](CO)[C@H](O)[C@H](O)[C@H]4O)CC3)c(F)cc2c1=O
MIC (Escherichia coli [27]): ≤ 0.03 µg/mL
